# Measured values reported in patent US20230126893A1, “[(1,4,5-TRISUBSTITUTED-1H-PYRAZOL-3-YL)SULFANYL]ACETIC ACID DERIVATIVES, SALTS THEREOF, AND USE THEREOF AS ACTIVE HERBICIDAL INGREDIENTS” (BAYER AKTIENGESELLSCHAFT, priority 2020, published 2023).
# System: Stellaria media
# Experiment: Pre-emergence herbicidal effect against STEME
# Format: in vivo
# Details: 1280 g/ha, visual score after 3 weeks, 100% = plants have died, 0% = like control plants
# From the text: (§1) 1. Pre-emergence herbicidal effect and crop plant compatibility Seeds of monocotyledonous and dicotyledonous weed plants and crop plants are laid out in sandy loam soil in wood-fibre pots and covered with soil. The compounds of the invention, formulated in the form of wettable powders (WP) or as emulsion concentrates (EC), are then applied to the surface of the covering soil as aqueous suspension or emulsion at a water application rate equating to 600 to 800 L/ha with addition of 0.2% wetting agent. After the treatment, the pots are placed in a greenhouse and kept under good growth conditions for the trial plants. The damage to the test plants is scored visually after a test period of 3 weeks by comparison with untreated controls (herbicidal activity in percent (%): 100% activity=the plants have died, 0% activity=like control plants). [table]
row,SMILES,Pre-emergence action against STEME [%]
1,O=C(O)CSc1nn(-c2ccccc2F)c(-c2ccc(Cl)nc2)c1Br [II-016],100
2,O=C(O)CSc1nn(-c2ccccc2)c(-c2cncnc2)c1Br [III-002],100

# System: Poa annua
# Experiment: Pre-emergence herbicidal effect against POAAN
# Format: in vivo
# Details: 1280 g/ha, visual score after 3 weeks, 100% = plants have died, 0% = like control plants
# From the text: as §1
row,SMILES,Pre-emergence action against POAAN [%]
1,O=C(O)CSc1nn(-c2ccccc2F)c(-c2ccc(Cl)nc2)c1Br [II-016],100
2,O=C(O)CSc1nn(-c2ccccc2)c(-c2cncnc2)c1Br [III-002],100

# System: Stellaria media
# Experiment: Post-emergence herbicidal effect against STEME
# Format: in vivo
# Details: 1280 g/ha, visual assessment about 3 weeks after treatment, 100% = plants have died, 0% = like control plants
# Description: (§2) [table] 2. Post-emergence herbicidal effect and crop plant compatibility Seeds of monocotyledonous and dicotyledonous weed and crop plants are laid out in sandy loam soil in wood-fibre pots, covered with soil and cultivated in a greenhouse under good growth conditions. 2 to 3 weeks after sowing, the test plants are treated at the one-leaf stage. The compounds of the invention, formulated in the form of wettable powders (WP) or as emulsion concentrates (EC), are then sprayed onto the green parts of the plants as aqueous suspension or emulsion at a water application rate equating to 600 to 800 l/ha with addition of 0.2% wetting agent. After the test plants have been left to stand in the greenhouse under optimal growth conditions for about 3 weeks, the action of the preparations is assessed visually in comparison to untreated controls (herbicidal action in percent (%): 100% activity=the plants have died, 0% activity=like control plants).
row,SMILES,Post-emergence action against STEME [%]
1,O=C(O)CSc1nn(-c2ccccc2F)c(-c2ccc(Cl)nc2)c1Br [II-016],100
2,O=C(O)CSc1nn(-c2ccccc2)c(-c2cncnc2)c1Br [III-002],90

# System: Veronica persica
# Experiment: Post-emergence herbicidal effect against VERPE
# Format: in vivo
# Details: 1280 g/ha, visual assessment about 3 weeks after treatment, 100% = plants have died, 0% = like control plants
# Description: as §2
row,SMILES,Post-emergence action against VERPE [%]
1,O=C(O)CSc1nn(-c2ccccc2F)c(-c2ccc(Cl)nc2)c1Br [II-016],100
2,O=C(O)CSc1nn(-c2ccccc2)c(-c2cncnc2)c1Br [III-002],100

# System: Setaria viridis
# Experiment: Pre-emergence herbicidal effect against SETVI
# Format: in vivo
# Details: 1280 g/ha, visual score after 3 weeks, 100% = plants have died, 0% = like control plants
# From the text: as §1
row,SMILES,Pre-emergence action against SETVI [%]
1,O=C(O)CSc1nn(-c2ccccc2F)c(-c2ccc(Cl)nc2)c1Br [II-016],100
2,O=C(O)CSc1nn(-c2ccccc2)c(-c2cncnc2)c1Br [III-002],100

# System: Echinochloa crus-galli
# Experiment: Post-emergence herbicidal effect against ECHCG
# Format: in vivo
# Details: 1280 g/ha, visual score after about 3 weeks, 100% = plants have died, 0% = like control plants
# Description: as §2
row,SMILES,Post-emergence action against ECHCG [%]
1,O=C(O)CSc1nn(-c2ccccc2F)c(-c2ccc(Cl)nc2)c1Br [II-016],100

# System: Digitaria sanguinalis
# Experiment: Pre-emergence herbicidal effect against DIGSA
# Format: in vivo
# Details: 1280 g/ha, visual score after 3 weeks, 100% = plants have died, 0% = like control plants
# From the text: as §1
row,SMILES,Pre-emergence action against DIGSA [%]
1,O=C(O)CSc1nn(-c2ccccc2F)c(-c2ccc(Cl)nc2)c1Br [II-016],100
2,O=C(O)CSc1nn(-c2ccccc2)c(-c2cncnc2)c1Br [III-002],100

# System: Veronica persica
# Experiment: Pre-emergence herbicidal effect against VERPE
# Format: in vivo
# Details: 1280 g/ha, visual score after 3 weeks, 100% = plants have died, 0% = like control plants
# From the text: as §1
row,SMILES,Pre-emergence action against VERPE [%]
1,O=C(O)CSc1nn(-c2ccccc2F)c(-c2ccc(Cl)nc2)c1Br [II-016],90
2,O=C(O)CSc1nn(-c2ccccc2)c(-c2cncnc2)c1Br [III-002],100

# System: Echinochloa crus-galli
# Experiment: Pre-emergence herbicidal effect against ECHCG
# Format: in vivo
# Details: 1280 g/ha, visual score after 3 weeks, 100% = plants have died, 0% = like control plants
# From the text: as §1
row,SMILES,Pre-emergence action against ECHCG [%]
1,O=C(O)CSc1nn(-c2ccccc2F)c(-c2ccc(Cl)nc2)c1Br [II-016],100
2,O=C(O)CSc1nn(-c2ccccc2)c(-c2cncnc2)c1Br [III-002],100

# System: Tripleurospermum inodorum
# Experiment: Pre-emergence herbicidal effect against MATIN
# Format: in vivo
# Details: 1280 g/ha, visual score after 3 weeks, 100% = plants have died, 0% = like control plants
# From the text: as §1
row,SMILES,Pre-emergence action against MATIN [%]
1,O=C(O)CSc1nn(-c2ccccc2F)c(-c2ccc(Cl)nc2)c1Br [II-016],100
2,O=C(O)CSc1nn(-c2ccccc2)c(-c2cncnc2)c1Br [III-002],100

# System: Alopecurus myosuroides
# Experiment: Post-emergence herbicidal effect against ALOMY
# Format: in vivo
# Details: 1280 g/ha, visual score after about 3 weeks, 100% = plants have died, 0% = like control plants
# Description: as §2
row,SMILES,Post-emergence action against ALOMY [%]
1,O=C(O)CSc1nn(-c2ccccc2F)c(-c2ccc(Cl)nc2)c1Br [II-016],100

# System: Amaranthus retroflexus
# Experiment: Pre-emergence herbicidal effect against AMARE
# Format: in vivo
# Details: 1280 g/ha, visual score after 3 weeks, 100% = plants have died, 0% = like control plants
# From the text: as §1
row,SMILES,Pre-emergence action against AMARE [%]
1,O=C(O)CSc1nn(-c2ccccc2)c(-c2cncnc2)c1Br [III-002],100

# System: Alopecurus myosuroides
# Experiment: Pre-emergence herbicidal effect against ALOMY
# Format: in vivo
# Details: 1280 g/ha, visual score after 3 weeks, 100% = plants have died, 0% = like control plants
# From the text: as §1
row,SMILES,Pre-emergence action against ALOMY [%]
1,O=C(O)CSc1nn(-c2ccccc2F)c(-c2ccc(Cl)nc2)c1Br [II-016],90

# System: Poa annua
# Experiment: Post-emergence herbicidal effect against POAAN
# Format: in vivo
# Details: 1280 g/ha, visual assessment about 3 weeks after treatment, 100% = plants have died, 0% = like control plants
# Description: as §2
row,SMILES,Post-emergence action against POAAN [%]
1,O=C(O)CSc1nn(-c2ccccc2F)c(-c2ccc(Cl)nc2)c1Br [II-016],100
2,O=C(O)CSc1nn(-c2ccccc2)c(-c2cncnc2)c1Br [III-002],100

# System: Tripleurospermum inodorum
# Experiment: Post-emergence herbicidal effect against MATIN
# Format: in vivo
# Details: 1280 g/ha, visual assessment about 3 weeks after treatment, 100% = plants have died, 0% = like control plants
# Description: as §2
row,SMILES,Post-emergence action against MATIN [%]
1,O=C(O)CSc1nn(-c2ccccc2F)c(-c2ccc(Cl)nc2)c1Br [II-016],100
2,O=C(O)CSc1nn(-c2ccccc2)c(-c2cncnc2)c1Br [III-002],90

# System: Digitaria sanguinalis
# Experiment: Post-emergence herbicidal effect against DIGSA
# Format: in vivo
# Details: 1280 g/ha, visual score after about 3 weeks, 100% = plants have died, 0% = like control plants
# Description: as §2
row,SMILES,Post-emergence action against DIGSA [%]
1,O=C(O)CSc1nn(-c2ccccc2F)c(-c2ccc(Cl)nc2)c1Br [II-016],100

# System: Lolium rigidum
# Experiment: Pre-emergence herbicidal effect against LOLRI
# Format: in vivo
# Details: 1280 g/ha, visual score after 3 weeks, 100% = plants have died, 0% = like control plants
# From the text: as §1
row,SMILES,Pre-emergence action against LOLRI [%]
1,O=C(O)CSc1nn(-c2ccccc2F)c(-c2ccc(Cl)nc2)c1Br [II-016],100
